Experimental data: patent US5023240A, “Derivatives of tylosin and 10,11,12,13-tetrahydro tylosin and their use in pharmaceuticals” (Sour Pliva, priority 1987, dated 1991)
Values after ≈ are worked out from the molar mass of the structure shown.

Legend:
Type in all cases: cell-based
Strep. faecalis = assay: antimicrobial activity, MIC by agar dilution method, Strep. faecalis; parameters: key to Minimal Inhibitory Concentration: R: resistant; details: 17 test strains, MIC refers to over 90% of tested strains; for MIC90: Enterococcus faecalis, read-out: Minimal Inhibitory Concentration
Method: (§1) The antimicrobial activity of some compounds of the present invention was tested on the laboratory strain Sarcina lutea and on 50 various strains isolated from fresh patients' samples. The minimal inhibitory concentration (MIC) was determined by the agar dilution method as described by M. D. Finegold and J. W. Martin, Diagnostic Microbiology, Mosby Comp., St. Louis 1982, p. 536-540.

Staph. saproph. = assay: antimicrobial activity, MIC by agar dilution method, Staph. saproph.; parameters: key to Minimal Inhibitory Concentration: R: resistant; details: 6 test strains, MIC refers to over 90% of tested strains; for MIC90: read-out: Minimal Inhibitory Concentration
Method: as §1

Sarcina lutea = assay: antimicrobial activity, MIC by agar dilution method, Sarcina lutea; details: Micrococcus luteus, 4 test strains, MIC refers to over 90% of tested strains, read-out: Minimal Inhibitory Concentration
Method: as §1

Strep. agalact. = assay: antimicrobial activity, MIC by agar dilution method, Strep. agalact.; parameters: key to Minimal Inhibitory Concentration: R: resistant; details: 2 test strains, MIC refers to over 90% of tested strains; for MIC90: read-out: Minimal Inhibitory Concentration
Method: as §1

Strep. pneumoniae = assay: antimicrobial activity, MIC by agar dilution method, Strep. pneumoniae; parameters: key to Minimal Inhibitory Concentration: R: resistant; details: 3 test strains, MIC refers to over 90% of tested strains; for MIC90: Streptococcus pneumoniae, read-out: Minimal Inhibitory Concentration
Method: as §1

Staph. aureus = assay: antimicrobial activity, MIC by agar dilution method, Staph. aureus; parameters: key to Minimal Inhibitory Concentration: R: resistant; details: 13 test strains, MIC refers to over 90% of tested strains; for MIC90: Staphylococcus aureus, read-out: Minimal Inhibitory Concentration
Method: as §1

| MIC90 (Strep. faecalis) | MIC90 (Staph. saproph.) | MIC90 (Sarcina lutea) | MIC90 (Strep. agalact.) | MIC90 (Strep. pneumoniae) | MIC90 (Staph. aureus) | Structure (SMILES) | Minimal Inhibitory Concentration (Strep. faecalis) | Minimal Inhibitory Concentration (Staph. saproph.) | Minimal Inhibitory Concentration (Strep. agalact.) | Minimal Inhibitory Concentration (Strep. pneumoniae) | Minimal Inhibitory Concentration (Staph. aureus) |
| --- | --- | --- | --- | --- | --- | --- | --- | --- | --- | --- | --- |
| 4 to 8 µg/mL (≈ 4.35 to 8.69 µM) | 1 to 2 µg/mL (≈ 1.09 to 2.17 µM) | 0.5 µg/mL (≈ 0.543 µM) | 1 to 2 µg/mL (≈ 1.09 to 2.17 µM) | 0.5 µg/mL (≈ 0.543 µM) | 2 to 4 µg/mL (≈ 2.17 to 4.35 µM) | CCC1OC(=O)CC(O)C(C)C(OC2OC(C)C(OC3CC(C)(O)C(O)C(C)O3)C(N(C)C)C2O)C(CC=O)CC(C)C(=O)CCC(C)CC1COC1OC(C)C(O)C(OC)C1OC (centres unmarked) [II, 10,11,12,13-tetrahydro tylosin] |  |  |  |  |  |
|  |  | 1 µg/mL (≈ 1.08 µM) |  |  | 32 µg/mL (≈ 34.7 µM) | CCC1OC(=O)CC(O)C(C)C(OC2OC(C)C(OC3CC(C)(O)C(O)C(C)O3)C(N(C)C)C2O)C(CCO)CC(C)C(=O)CCC(C)CC1COC1OC(C)C(O)C(OC)C1OC (centres unmarked) [III, 10,11,12,13-tetrahydro relomycin] | R | R | R | R |  |
| 8 to 32 µg/mL (≈ 8.68 to 34.7 µM) | 2 to 4 µg/mL (≈ 2.17 to 4.34 µM) | 0.5 µg/mL (≈ 0.542 µM) | 2 to 8 µg/mL (≈ 2.17 to 8.68 µM) | 0.5 µg/mL (≈ 0.542 µM) | 4 µg/mL (≈ 4.34 µM) | CCC1OC(=O)CC(O)C(C)C(OC2OC(C)C(OC3CC(C)(O)C(O)C(C)O3)C(N(C)C)C2O)C(CC=O)CC(C)C(O)CCC(C)CC1COC1OC(C)C(O)C(OC)C1OC (centres unmarked) [VI, 9-deoxo-9-hydroxy-10,11,12,13-tetrahydro tylosin] |  |  |  |  |  |
| 1 to 4 µg/mL (≈ 1.07 to 4.3 µM) | 0.5 to 2 µg/mL (≈ 0.537 to 2.15 µM) | 0.5 µg/mL (≈ 0.537 µM) | 0.5 µg/mL (≈ 0.537 µM) | 0.5 µg/mL (≈ 0.537 µM) | 1 to 4 µg/mL (≈ 1.07 to 4.3 µM) | CCC1OC(=O)CC(O)C(C)C(OC2OC(C)C(OC3CC(C)(O)C(O)C(C)O3)C(N(C)C)C2O)C(CC=NO)CC(C)C(=O)C=CC(C)=CC1COC1OC(C)C(O)C(OC)C1OC (centres unmarked) [XII, Tylosin aldoxime] |  |  |  |  |  |
|  | 8 µg/mL (≈ 8.55 µM) | 0.5 µg/mL (≈ 0.535 µM) |  | 1 µg/mL (≈ 1.07 µM) | 8 to 16 µg/mL (≈ 8.55 to 17.1 µM) | CCC1OC(=O)CC(O)C(C)C(OC2OC(C)C(OC3CC(C)(O)C(O)C(C)O3)C(N(C)C)C2O)C(CC=NO)CC(C)C(=O)CCC(C)CC1COC1OC(C)C(O)C(OC)C1OC (centres unmarked) [XIX, 10,11,12,13-tetrahydro tylosin aldoxime] |  |  |  |  |  |
|  | 4 to 16 µg/mL (≈ 4.29 to 17.1 µM) | 0.5 µg/mL (≈ 0.536 µM) | 64 µg/mL (≈ 68.6 µM) | 0.5 µg/mL (≈ 0.536 µM) | 64 µg/mL (≈ 68.6 µM) | CCC1OC(=O)CC(O)C(C)C(OC2OC(C)C(OC3CC(C)(O)C(O)C(C)O3)C(N(C)C)C2O)C(CCO)CC(C)C(=NO)C=CC(C)=CC1COC1OC(C)C(O)C(OC)C1OC (centres unmarked) [XVIII, relomycin oxime] | R |  |  |  |  |
|  | 16 µg/mL (≈ 16.8 µM) | 1 µg/mL (≈ 1.05 µM) |  | 2 to 4 µg/mL (≈ 2.1 to 4.21 µM) | 16 to 32 µg/mL (≈ 16.8 to 33.7 µM) | CCC1OC(=O)CC(O)C(C)C(OC2OC(C)C(OC3CC(C)(O)C(O)C(C)O3)C(N(C)C)C2O)C(CC=NO)CC(C)C(=NO)CCC(C)CC1COC1OC(C)C(O)C(OC)C1OC (centres unmarked) [XX, 10,11,12,13tetrahydro tylosin dioxime] |  |  |  |  |  |
|  |  | 0.5 µg/mL (≈ 0.534 µM) |  | 64 µg/mL (≈ 68.3 µM) |  | CCC1OC(=O)CC(O)C(C)C(OC2OC(C)C(OC3CC(C)(O)C(O)C(C)O3)C(N(C)C)C2O)C(CCO)CC(C)C(=NO)CCC(C)CC1COC1OC(C)C(O)C(OC)C1OC (centres unmarked) [XXIII, 10,11,12,13-tetrahydro relomycin oxime] | R | R | R |  | R |

| Structure (SMILES) | MIC90 (Strep. faecalis) | MIC90 (Staph. saproph.) | MIC90 (Sarcina lutea) | MIC90 (Strep. agalact.) | MIC90 (Strep. pneumoniae) | MIC90 (Staph. aureus) | Minimal Inhibitory Concentration (Strep. faecalis) | Minimal Inhibitory Concentration (Staph. saproph.) | Minimal Inhibitory Concentration (Strep. agalact.) | Minimal Inhibitory Concentration (Strep. pneumoniae) | Minimal Inhibitory Concentration (Staph. aureus) |
| --- | --- | --- | --- | --- | --- | --- | --- | --- | --- | --- | --- |
| CCC1OC(=O)CC(O)C(C)C(OC2OC(C)C(OC3CC(C)(O)C(O)C(C)O3)C(N(C)C)C2O)C(CCO)CC(C)C(=O)C=CC(C)=CC1COC1OC(C)C(O)C(OC)C1OC (centres unmarked) [Ia, 20-deoxo-20-hydroxy tylosin, reference compound] | 64 µg/mL (≈ 69.7 µM) | 1 to 16 µg/mL (≈ 1.09 to 17.4 µM) | 1 µg/mL (≈ 1.09 µM) | 16 µg/mL (≈ 17.4 µM) | 0.5 to 1 µg/mL (≈ 0.545 to 1.09 µM) | 4 to 16 µg/mL (≈ 4.36 to 17.4 µM) |  |  |  |  |  |
